Assay in all cases: biochemical
Holding throughout (parameters): KinomeScan competition binding panel (DiscoveRx), percent of control at 1 uM
What all share (conditions): read-out: Percent Control

One assay deals with BMPR1B (Homo sapiens, UniProt O00238). The method, boiled down:
(§1)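 Selectivity profiled across 456 kinases/mutants by KinomeScan binding technology.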

The target in another assay is BTK (Homo sapiens, UniProt Q06187). The method in brief:
as §1

In another assay the target is CAMKK1 (Homo sapiens, UniProt Q8N5S9). The method in brief: as §1
The target of the next assay is CDK5 (Homo sapiens, UniProt Q00535). The method in brief: as §1
Another assay has as its target EGFR(G719S) (Homo sapiens, UniProt P00533, G719S). The method, boiled down: as §1
The next assay concerns the target EIF2AK1 (Homo sapiens, UniProt Q9BQI3). The method, boiled down: as §1
For the next assay, the target named is EPHA6 (Homo sapiens, UniProt Q9UF33). The method in brief:
as §1

The next assay concerns the target EPHB2 (Homo sapiens, UniProt P29323). The method in brief: as §1
The target of the next assay is T1, ERK5 (Homo sapiens, UniProt Q13164).
T1 construct: gene MAPK7
The method, boiled down: as §1

In the next assay the target is FLT3(D835H) (Homo sapiens, UniProt P36888, D835H). The method, boiled down:
as §1

Another assay has as its target FLT3-autoinhibited (Homo sapiens, UniProt P36888). The method in brief:
as §1

The target of the next assay is HUNK (Homo sapiens, UniProt P57058). The method, boiled down: as §1
The target in a further assay is INSR (Homo sapiens, UniProt P06213). The method, boiled down:
as §1

The next assay concerns the target IRAK1 (Homo sapiens, UniProt P51617). The method in brief: as §1
Another assay deals with T2, JNK3 (Homo sapiens, UniProt P53779).
T2 construct: gene MAPK10
The method in brief:
as §1

The target of another assay is T3, MEK4 (Homo sapiens, UniProt P45985).
T3 construct: gene MAP2K4
The method in brief: as §1

A further assay concerns the target T4, MEK5 (Homo sapiens, UniProt Q13163).
T4 construct: gene MAP2K5
The method, boiled down:
as §1

For a further assay, the target named is T5, MKK7 (Homo sapiens, UniProt O14733).
T5 construct: gene MAP2K7
The method in brief: as §1

Another assay concerns the target NEK2 (Homo sapiens, UniProt P51955). The method in brief:
as §1

The target of the next assay is RET (Homo sapiens, UniProt P07949). The method, boiled down: as §1
Another assay deals with RET(V804M) (Homo sapiens, UniProt P07949, V804M). The method in brief: as §1
In assay [1] the target is T6, RSK1(Kin.Dom.2-C-terminal) (Homo sapiens, UniProt Q15418).
T6 construct: gene RPS6KA1; Kin.Dom.2-C-terminal
The method, boiled down: as §1

The target of assay [2] is T7, RSK2(Kin.Dom.1-N-terminal) (Homo sapiens, UniProt P51812).
T7 construct: gene RPS6KA3; Kin.Dom.1-N-terminal
The method, boiled down:
as §1

Assay [3] addresses T8, RSK3(Kin.Dom.2-C-terminal) (Homo sapiens, UniProt Q15349).
T8 construct: gene RPS6KA2; Kin.Dom.2-C-terminal
The method, boiled down: as §1

T7 sequence (P51812 whole entry): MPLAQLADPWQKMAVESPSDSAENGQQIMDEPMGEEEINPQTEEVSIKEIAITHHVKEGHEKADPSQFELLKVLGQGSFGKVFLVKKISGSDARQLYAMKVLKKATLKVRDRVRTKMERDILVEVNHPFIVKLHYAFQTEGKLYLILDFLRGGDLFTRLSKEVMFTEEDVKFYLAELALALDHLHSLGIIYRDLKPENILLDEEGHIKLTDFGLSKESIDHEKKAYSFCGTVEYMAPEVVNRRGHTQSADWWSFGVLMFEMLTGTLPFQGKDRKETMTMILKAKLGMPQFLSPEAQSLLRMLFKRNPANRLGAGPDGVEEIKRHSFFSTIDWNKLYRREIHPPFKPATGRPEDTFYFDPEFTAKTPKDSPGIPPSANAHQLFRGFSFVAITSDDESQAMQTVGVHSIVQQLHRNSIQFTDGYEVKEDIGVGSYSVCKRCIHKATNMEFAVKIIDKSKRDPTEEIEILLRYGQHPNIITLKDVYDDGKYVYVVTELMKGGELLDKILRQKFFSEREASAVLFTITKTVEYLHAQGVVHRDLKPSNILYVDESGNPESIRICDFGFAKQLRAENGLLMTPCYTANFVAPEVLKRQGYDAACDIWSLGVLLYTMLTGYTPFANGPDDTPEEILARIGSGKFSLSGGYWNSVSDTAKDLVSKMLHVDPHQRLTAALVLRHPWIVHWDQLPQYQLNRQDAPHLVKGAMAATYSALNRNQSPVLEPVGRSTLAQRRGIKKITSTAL
T1 sequence (Q13164 whole entry): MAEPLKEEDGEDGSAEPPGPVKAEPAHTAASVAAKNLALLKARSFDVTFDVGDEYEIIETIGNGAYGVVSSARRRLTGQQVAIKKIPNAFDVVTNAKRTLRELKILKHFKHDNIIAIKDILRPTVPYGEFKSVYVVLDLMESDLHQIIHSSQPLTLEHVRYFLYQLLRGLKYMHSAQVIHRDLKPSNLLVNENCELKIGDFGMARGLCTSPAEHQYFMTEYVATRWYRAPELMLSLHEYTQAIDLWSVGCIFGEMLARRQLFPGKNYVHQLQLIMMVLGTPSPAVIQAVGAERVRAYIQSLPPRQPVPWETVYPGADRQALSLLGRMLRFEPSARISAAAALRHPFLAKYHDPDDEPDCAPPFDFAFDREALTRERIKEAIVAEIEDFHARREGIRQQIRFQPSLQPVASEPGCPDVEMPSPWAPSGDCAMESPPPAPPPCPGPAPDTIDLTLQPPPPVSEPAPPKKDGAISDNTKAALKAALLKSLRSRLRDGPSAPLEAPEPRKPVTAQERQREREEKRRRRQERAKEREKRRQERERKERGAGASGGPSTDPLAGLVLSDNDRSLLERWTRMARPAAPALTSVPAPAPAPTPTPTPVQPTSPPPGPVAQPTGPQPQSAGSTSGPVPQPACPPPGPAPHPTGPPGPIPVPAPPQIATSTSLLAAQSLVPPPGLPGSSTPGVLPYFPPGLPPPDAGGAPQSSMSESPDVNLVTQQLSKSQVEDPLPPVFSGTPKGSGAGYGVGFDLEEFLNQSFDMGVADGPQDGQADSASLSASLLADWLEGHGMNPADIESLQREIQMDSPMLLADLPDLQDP
Chain of RET(V804M) (P07949 whole entry V804M): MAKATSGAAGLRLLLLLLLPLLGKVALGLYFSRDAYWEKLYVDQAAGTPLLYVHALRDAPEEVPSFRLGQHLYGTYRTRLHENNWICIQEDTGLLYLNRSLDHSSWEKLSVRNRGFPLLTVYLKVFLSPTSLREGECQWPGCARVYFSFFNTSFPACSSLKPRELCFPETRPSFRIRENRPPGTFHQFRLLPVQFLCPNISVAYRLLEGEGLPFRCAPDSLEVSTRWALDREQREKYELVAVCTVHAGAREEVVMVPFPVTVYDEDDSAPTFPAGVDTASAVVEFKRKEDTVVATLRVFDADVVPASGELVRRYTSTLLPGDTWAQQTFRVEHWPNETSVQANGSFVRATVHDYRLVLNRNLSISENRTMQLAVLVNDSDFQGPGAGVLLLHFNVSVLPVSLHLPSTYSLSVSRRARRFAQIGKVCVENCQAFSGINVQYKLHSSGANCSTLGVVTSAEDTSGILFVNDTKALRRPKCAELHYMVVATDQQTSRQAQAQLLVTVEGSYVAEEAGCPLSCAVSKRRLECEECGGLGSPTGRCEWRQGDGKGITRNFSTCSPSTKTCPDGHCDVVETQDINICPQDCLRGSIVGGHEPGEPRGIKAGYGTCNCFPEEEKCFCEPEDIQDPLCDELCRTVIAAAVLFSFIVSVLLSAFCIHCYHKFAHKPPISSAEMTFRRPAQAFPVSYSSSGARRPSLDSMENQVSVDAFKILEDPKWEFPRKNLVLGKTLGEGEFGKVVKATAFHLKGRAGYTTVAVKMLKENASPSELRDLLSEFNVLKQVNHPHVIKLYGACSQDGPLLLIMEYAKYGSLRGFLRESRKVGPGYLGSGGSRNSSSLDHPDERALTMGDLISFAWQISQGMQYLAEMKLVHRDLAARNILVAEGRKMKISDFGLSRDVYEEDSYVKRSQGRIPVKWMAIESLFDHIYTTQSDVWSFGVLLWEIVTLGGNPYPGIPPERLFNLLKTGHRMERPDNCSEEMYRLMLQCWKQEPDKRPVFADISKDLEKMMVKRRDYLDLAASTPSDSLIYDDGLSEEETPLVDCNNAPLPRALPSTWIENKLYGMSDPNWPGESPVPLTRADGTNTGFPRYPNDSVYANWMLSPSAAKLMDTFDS
Chain of EIF2AK1 (Q9BQI3 whole entry): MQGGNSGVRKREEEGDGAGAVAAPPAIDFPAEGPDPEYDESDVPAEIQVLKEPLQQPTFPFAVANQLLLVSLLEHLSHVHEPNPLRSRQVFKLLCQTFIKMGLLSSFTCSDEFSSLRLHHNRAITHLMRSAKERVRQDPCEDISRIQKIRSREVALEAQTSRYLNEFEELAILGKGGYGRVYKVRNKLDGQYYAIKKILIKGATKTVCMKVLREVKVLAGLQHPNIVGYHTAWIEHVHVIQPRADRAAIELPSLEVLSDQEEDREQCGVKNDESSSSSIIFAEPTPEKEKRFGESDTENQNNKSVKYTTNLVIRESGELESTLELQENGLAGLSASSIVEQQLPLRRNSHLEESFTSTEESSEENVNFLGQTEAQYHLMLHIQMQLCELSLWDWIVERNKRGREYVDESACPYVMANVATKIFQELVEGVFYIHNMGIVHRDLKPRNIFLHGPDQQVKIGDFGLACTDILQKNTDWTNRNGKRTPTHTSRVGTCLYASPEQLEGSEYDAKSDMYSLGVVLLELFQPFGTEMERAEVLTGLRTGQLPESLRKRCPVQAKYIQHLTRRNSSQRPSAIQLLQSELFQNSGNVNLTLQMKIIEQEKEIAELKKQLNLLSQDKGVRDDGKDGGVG
T5 sequence (O14733 whole entry): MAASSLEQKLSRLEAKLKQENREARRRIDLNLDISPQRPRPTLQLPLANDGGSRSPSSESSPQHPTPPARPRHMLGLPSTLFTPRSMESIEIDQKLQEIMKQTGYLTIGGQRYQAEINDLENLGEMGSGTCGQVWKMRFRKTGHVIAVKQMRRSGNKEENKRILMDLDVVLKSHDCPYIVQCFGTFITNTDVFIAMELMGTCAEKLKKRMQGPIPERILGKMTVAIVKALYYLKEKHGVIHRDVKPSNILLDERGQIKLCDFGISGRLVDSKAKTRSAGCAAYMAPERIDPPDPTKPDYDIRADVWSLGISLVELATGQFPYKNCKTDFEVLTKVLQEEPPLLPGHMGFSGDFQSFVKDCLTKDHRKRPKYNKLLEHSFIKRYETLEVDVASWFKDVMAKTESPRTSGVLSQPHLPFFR
Chain of IRAK1 (P51617 whole entry): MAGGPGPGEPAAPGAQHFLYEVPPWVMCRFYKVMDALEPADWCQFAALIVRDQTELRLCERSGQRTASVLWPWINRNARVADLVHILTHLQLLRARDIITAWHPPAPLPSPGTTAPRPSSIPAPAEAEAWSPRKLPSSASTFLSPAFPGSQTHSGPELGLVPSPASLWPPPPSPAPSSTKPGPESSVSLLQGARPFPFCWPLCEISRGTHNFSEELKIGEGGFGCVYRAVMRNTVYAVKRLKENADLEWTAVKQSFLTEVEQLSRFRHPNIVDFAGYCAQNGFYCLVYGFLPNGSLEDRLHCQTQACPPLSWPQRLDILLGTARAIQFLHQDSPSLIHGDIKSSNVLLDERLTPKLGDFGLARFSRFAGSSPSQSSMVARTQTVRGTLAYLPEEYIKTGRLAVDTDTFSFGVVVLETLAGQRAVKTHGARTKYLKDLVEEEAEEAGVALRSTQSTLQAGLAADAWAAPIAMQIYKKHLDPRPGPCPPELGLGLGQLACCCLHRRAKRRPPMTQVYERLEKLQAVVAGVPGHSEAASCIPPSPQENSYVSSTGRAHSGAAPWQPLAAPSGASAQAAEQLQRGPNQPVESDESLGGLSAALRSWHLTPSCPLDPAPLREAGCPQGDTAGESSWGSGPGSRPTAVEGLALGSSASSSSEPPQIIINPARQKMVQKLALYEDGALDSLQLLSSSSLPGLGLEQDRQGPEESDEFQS
Chain of BMPR1B (O00238 whole entry): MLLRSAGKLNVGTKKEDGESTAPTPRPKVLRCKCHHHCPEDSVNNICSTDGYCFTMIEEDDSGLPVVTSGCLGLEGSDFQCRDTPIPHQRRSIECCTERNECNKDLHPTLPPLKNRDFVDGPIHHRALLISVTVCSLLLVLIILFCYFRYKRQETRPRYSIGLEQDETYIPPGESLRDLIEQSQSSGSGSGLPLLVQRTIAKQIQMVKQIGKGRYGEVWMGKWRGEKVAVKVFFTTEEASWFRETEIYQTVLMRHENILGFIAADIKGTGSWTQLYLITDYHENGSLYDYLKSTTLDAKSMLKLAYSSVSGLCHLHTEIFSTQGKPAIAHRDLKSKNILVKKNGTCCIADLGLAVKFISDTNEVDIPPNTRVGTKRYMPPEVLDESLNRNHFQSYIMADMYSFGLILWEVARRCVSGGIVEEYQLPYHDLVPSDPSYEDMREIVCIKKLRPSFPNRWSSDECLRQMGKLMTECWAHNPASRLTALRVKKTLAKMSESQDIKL
Chain of RET (P07949 whole entry): as the sequence (P07949 whole entry V804M) above, with M804V counted along it

`C=CC(=O)Nc1cc(-n2c(=O)ccc3cnc4ccc(-n5cccn5)cc4c32)ccc1C` [CHMFL-BTK-11]: the remaining binding at 1 µM at BMPR1B was 97%; on BTK it was 8.2%; on CAMKK1, 78%; on CDK5, 100%; at EGFR(G719S), 88%; on EIF2AK1, 92%. Further, the remaining binding at 1 µM at EPHA6 was determined as 100%; at EPHB2, 89%; at ERK5 it was 100%; on FLT3(D835H), 100%; on FLT3-autoinhibited it was 100%; at HUNK, 86%. Moreover, the remaining binding at 1 µM at INSR was 82%; on IRAK1, 87%; on JNK3, 100%; at MEK4 it was 100%; on MEK5 it was 80%; on MKK7 it was 77%. The remaining binding at 1 µM on NEK2 is 100%; at RET, 100%; on RET(V804M), 100%; in [1], 100%; in assay [2] it was 85%; in assay [3], 100%.

Source of the values: paper PMC5428509, “Irreversible inhibition of BTK kinase by a novel highly selective inhibitor CHMFL-BTK-11 suppresses inflammatory response in rheumatoid arthritis model” (Scientific Reports, 2017).
